According to patent US12533353B2, “Methods of treatment of cancer comprising CDC7 inhibitors” (CARNA BIOSCIENCES, INC., priority 2018, dated 2026):
Read-outs that look alike come from different tables or passages of the source.

Columns and labels:
[1] = tested on: Colo-205 tumor xenografts; assay: Rat Colo-205 colorectal xenograft efficacy; assay type: in vivo; conditions: for tumor growth inhibition: 5 days of 7-day cycle, Day 31
Description: The efficacy of a Cdc7 inhibitor (compound SRA141) as a monotherapy was tested in a rat xenograft model of colorectal cancer (CRC) (FIG. 7). Female Rowett nude rats were inoculated sub-cutaneously with 2×10^7 COLO-205 human colorectal carcinoma cells. All rats were gamma-irradiated (4Gy) 24 hours before tumor cell injection. The COLO-205 cells were injected in 0.2 mL PBS in 1:1 Matrigel®. Female The nude rats bearing Colo-205 tumor xenografts were orally administered (i) vehicle control (0.5% CMC-Na/1% Lutrol F-68) or (ii) SRA141 150 mg/kg once a day (QD) for 5 consecutive days of a 7-day cycle for 6 weeks or (iii) SRA141 75 mg/kg twice a day (BID) for 5 consecutive days of a 7-day cycle for 6 weeks (n=7 per treatment group). Tumor growth inhibition was calculated on Day 31, the final day all vehicle control animals remained on study. Tumor volume measurements and body weight measurements were taken biweekly.

Cdc7 = Cdc7 (Homo sapiens, UniProt O00311); assay: Rapid dilution studies (residence time, dissociation kinetics); assay type: binding
AML-blast progenitors = assay: 3D growth in methylcellulose matrix, 14 days; assay type: cell-based
Description: (§1) The anti-proliferative activity of SRA141 (0.3-5 μM) was also evaluated in additional 3D growth studies conducted in a methylcellulose growth matrix using normal human myeloid (n=3) and AML-blast progenitors incubated for 14 days.

[2] = tested on: normal human myeloid progenitors (normal bone marrow); assay: 3D growth in methylcellulose matrix, 14 days; assay type: cell-based
Description: as §1

MV-4-11 cancer cells = assay: MV-4-11 human leukemia systemic survival study; assay type: in vivo, mouse
Description: Female NOD SCID mice intravenously inoculated with MV-4-11 cancer cells were administered (i) vehicle control (0.1 M HCl/0.5% MC400, oral) or (ii) SRA141 initially at 60 mg/kg BID for 5 consecutive days of a 7-day cycle from Days 0 to 21, and then due to significant body weight loss, at 40 mg/kg BID on the same schedule from Days 22 to 73 (n=10 per treatment group). Survival was the only efficacy endpoint in this study, given the systemic nature of the cancer model.

[3] = tested on: three AML cell lines (EOL-1, Molm-16 and MV-4-11) and three AML PDX models (AM5512, AM7440 and AM7577); assay: AML 3D cultures, summary over models; assay type: cell-based; conditions: five of the six models; read-out: IC50 range
Description: The activity of SRA141 was investigated in in vitro and ex vivo three-dimensional (3D) cultures prepared from three AML cell lines (EOL-1, Molm-16 and MV-4-11) and three AML PDX models (AM5512, AM7440 and AM7577), respectively. Tumor cultures were treated with SRA141 (0.08 to 33 μM) for 5 days.

[4] = 60 then 40 mg/kg BID, 5 days of 7-day cycle

Chain of Cdc7 (O00311 whole entry): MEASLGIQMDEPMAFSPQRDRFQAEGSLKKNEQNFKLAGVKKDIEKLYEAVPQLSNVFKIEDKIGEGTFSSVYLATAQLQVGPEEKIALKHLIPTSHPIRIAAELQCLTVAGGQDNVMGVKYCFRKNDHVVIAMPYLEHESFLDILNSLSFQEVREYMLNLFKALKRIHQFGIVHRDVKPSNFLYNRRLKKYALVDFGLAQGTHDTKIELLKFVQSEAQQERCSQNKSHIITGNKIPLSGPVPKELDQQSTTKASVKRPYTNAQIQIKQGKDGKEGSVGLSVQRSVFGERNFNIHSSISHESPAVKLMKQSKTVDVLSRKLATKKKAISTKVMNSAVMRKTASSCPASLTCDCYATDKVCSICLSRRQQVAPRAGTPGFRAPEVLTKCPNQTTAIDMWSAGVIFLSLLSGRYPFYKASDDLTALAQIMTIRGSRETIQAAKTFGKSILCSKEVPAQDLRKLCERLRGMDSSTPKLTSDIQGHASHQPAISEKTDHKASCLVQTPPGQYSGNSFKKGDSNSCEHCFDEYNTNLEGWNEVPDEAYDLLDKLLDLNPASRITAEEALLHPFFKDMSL
Chain of Cdc7 (Q9UBU7 whole entry partner): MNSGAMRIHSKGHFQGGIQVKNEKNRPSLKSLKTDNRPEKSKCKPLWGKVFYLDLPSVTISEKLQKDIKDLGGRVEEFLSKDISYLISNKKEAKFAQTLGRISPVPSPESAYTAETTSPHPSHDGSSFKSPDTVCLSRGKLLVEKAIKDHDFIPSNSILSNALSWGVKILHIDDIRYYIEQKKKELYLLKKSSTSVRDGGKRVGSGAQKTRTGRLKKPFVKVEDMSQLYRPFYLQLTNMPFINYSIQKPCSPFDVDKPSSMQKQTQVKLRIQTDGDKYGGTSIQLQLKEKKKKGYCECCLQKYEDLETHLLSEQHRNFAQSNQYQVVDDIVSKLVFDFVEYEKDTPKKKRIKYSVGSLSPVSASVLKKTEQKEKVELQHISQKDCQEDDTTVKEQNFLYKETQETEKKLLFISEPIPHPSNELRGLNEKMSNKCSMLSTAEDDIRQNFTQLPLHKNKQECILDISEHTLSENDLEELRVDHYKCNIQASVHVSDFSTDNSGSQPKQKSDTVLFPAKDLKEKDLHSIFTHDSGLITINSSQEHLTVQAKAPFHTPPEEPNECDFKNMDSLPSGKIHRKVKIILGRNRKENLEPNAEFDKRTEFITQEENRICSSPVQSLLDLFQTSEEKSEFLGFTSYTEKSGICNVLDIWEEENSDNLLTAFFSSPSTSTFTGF

For `CCOC(=O)C1=C(NN2CCN(CC(F)(F)F)CC2)O/C(=C\c2c[nH]c3ncccc23)C1=O` [SRA141], the “complete tumor regressions (no measurable tumor for 3 consecutive measurements)” value ([1]; 75 mg/kg BID) was 4 of 7, the “partial regression (tumor volume <50% of initial volume for 3 consecutive measurements)” value ([1]; 75 mg/kg BID) was 1 of 7 and the tumor growth inhibition ([1]; 75 mg/kg BID) was 93%. It also gave a tumor growth inhibition ([1]; 150 mg/kg QD) of 50%, a koff (Cdc7; at 5 nM) of 5.33e-05 s⁻¹ and a residence time (Cdc7; rapid dilution, read-out: residence time t1/2) of 215 min. The “primary AML samples responding with a Therapeutic Index [(Primary AML IC50)÷(BMNC control IC50)]” value (AML-blast progenitors; 9 primary AML samples) was 5 out of 9, the IC50 (AML-blast progenitors; AML810 censored, read-out: mean IC50, AML samples) was roughly 160 nM and the IC50 (AML-blast progenitors; AML-blast progenitor 180, read-out: IC50) was 337 nM. It also gave an IC50 (AML-blast progenitors; AML-blast progenitor 190, read-out: IC50) of 73 nM, an IC50 (AML-blast progenitors; AML-blast progenitor 200, read-out: IC50) of 119 nM and an IC50 (AML-blast progenitors; AML-blast progenitor 250, read-out: IC50) of 159 nM. For the same compound, the IC50 (AML-blast progenitors; AML-blast progenitor 260, read-out: IC50) was 140 nM, the IC50 (AML-blast progenitors; AML-blast progenitor 717, read-out: IC50) was 118 nM and the IC50 (AML-blast progenitors; AML-blast progenitor 810 (sample censored), read-out: IC50) was 831 nM. The IC50 (AML-blast progenitors; AML-blast progenitor 915, read-out: IC50) was 177 nM, the IC50 (AML-blast progenitors; AML-blast progenitor 917, read-out: IC50) was 202 nM and the IC50 (AML-blast progenitors; with AML 810, read-out: Mean AML-blast progenitor IC50 (with AML 810)) was 240 ± 234 nM. It also gave an IC50 (AML-blast progenitors; without AML 810, read-out: Mean AML-blast progenitor IC50 (without AML 810)) of 166 ± 80 nM, an IC50 ([2]; Normal bone marrow 111, read-out: IC50) of 165 nM and an IC50 ([2]; Normal bone marrow 525 (first line), read-out: IC50) of 375 nM. It also gave an IC50 ([2]; Normal bone marrow 525 (second line), read-out: IC50) of 212 nM, an IC50 ([2]; mean of 3 samples, read-out: Mean normal bone marrow IC50) of 251 ± 110 nM and an IC50 ([2]; read-out: mean IC50, normal bone marrow preparations) of 250 nM. For the same compound, the “median survival, all animals including premature decedents” value (MV-4-11 cancer cells; [4]) was 35 days, the “median survival, premature decedents censored” value (MV-4-11 cancer cells; [4]) was “greater than 99 days” and the “mice with body weight loss greater than 20%” value (MV-4-11 cancer cells; SRA141-treated mice) was “One of ten”. The IC50 [3] was 150 to 1600 nM.
